US10048243B2, “Automatic water quality surveillance apparatus” (priority 2016, dated 2018)

Assays:
[1] = system: fish reared within the water tank for fish; assay type: in vivo; conditions: for effect on the fish: in vivo; for damage or injury of the fish caused by the pollution: small amount
Description: This is because the oil keeps floating on a water surface thereof.
In this context, the present inventor has confirmed according to tests that the conventional automatic water quality surveillance apparatus with fish cannot sense the oil and/or the mold odor substances based on abnormal behavior of the fish.

cyprinodonts = system: cyprinodonts; set-up: species or system Oryzias latipes; conditions: in vivo
Description: Referring to FIG. 10, it is clear that the cyprinodonts 4e take unique action based on the kind of toxic substances.
In order to solve the problems, the present inventor has further devised a method including: putting a plurality (for example, 20) of cyprinodonts 4e into the water tank for fish 4d; photographing the cyprinodonts 4e by means of the CCD video camera 1 in a direction of bird's-eye to output data; and analyzing the data with the image processing device 1b.
In order to solve the problem of photographing one cyprinodont from the side wall, the inventor has performed: changing the side photographing system shown in FIG. 10 to the bird's-eye photographing system shown in FIG. 11; using the more (about 20) cyprinodonts; and developing new algorithm. In this way, the present inventor has solved the problem in recent years.
Furthermore, the present inventor has developed algorithm of issuing an alarm in this state.
When about 2 [ppm] concentration of potassium cyanide is contained in the raw water, the cyprinodonts 4e swim weakly toward a water flow to be carried away, thereby being latched by the capture net 4f.

Compound	effect on the fish [1]	damage or injury of the fish caused by the pollution [1]	organ system of cyprinodonts damaged (cyprinodonts)	unique action taken by cyprinodonts (cyprinodonts)
CC1CCCC2(C)CCCCC12O (stereo not drawn) [geosmin]	hardly affect the fish	neither to be damaged nor to be injured	–	–
COP(=S)(OC)Oc1ccc([N+](=O)[O-])c(C)c1 [Fenitrothion]	–	–	damages nervous systems	madly-rushing action
CC1(C)[C@@H]2CC[C@@]1(C)[C@](C)(O)C2 [2-MIB, 2-methylisoborneol]	hardly affect the fish	neither to be damaged nor to be injured	–	–
